Experimental data taken from patent publication US20170184612A1, “USE OF LEUKOCYTES AND NOVEL BIOMARKERS IN THE DIAGNOSIS, CONFIRMATION, AND TREATMENT OF A NEUROLOGICAL DISORDER” (The Trustees of Columbia University in the City of New York, priority 2014, published 2017).

Experiments:
[1] = system: peripheral blood mononuclear cells (PBMC), T cells; experiment: ELISpot assay, gamma-interferon release (SFC) after stimulation with a-synuclein epitope pools; type: cell-based, human; details: for Pool +: IFNg, Pool Stimulated, number of donors with a positive response, Donors tested 1
Experimental: (§1) Blood from age matched controls and PD patients were obtained and mononuclear cells were isolated by gradient centrifugation.
(§2) Release of the cytokines gamma-interferon, which measures activation of CD4+ and/or CD8+ T cells, and the interleukin, IL-5, which measures activation of CD4+ T cells was measured by ELISpot assay. […] After 22 hours of stimulation at 37 C, the cells were removed and release of cytokines was measured by colorimetric detection of spot-forming cells (SFC). Confirmed release of cytokine is determined by the presence of a minimum of 20 SFC per million cells.
(§3) The binding algorithms in SubAim 1 predict how well the peptides would bind to MHC if present, but not if they are present in patients. To determine this, the presence of T cell response against the candidate antigens by patient blood-derived peripheral blood mononuclear cells (PBMC) is assessed by ELISPOT assays upon stimulation with the peptides. This assay detects and quantifies cytokine release (in this case, IFNγ and IL-5) from specific activated T cells.
(§4) Data were obtained from blood samples (25 ml) from 44 PD patients and 24 age-matched controls. The experiments were conducted blindly. PBMCs from these samples were isolated and exposed to pools comprising the 122 candidate class I and class II antigens and phosphorylated S129 epitopes generated in Subaim 1. For the PBMCs responsive to the pooled peptides, the response was then deconvoluted to identify individual epitopes.
(§5) PMBC fractions are recovered by standard methods with Ficoll gradient and T cells expansion (Oseroff et al., 2010). The methods for the analysis of T cell reactions and measurement of cytokines production using the enzyme-linked immunosorbent spot (ELISPOT) assay are published in analogous experiments to discover antigens in multiple sclerosis (Lolli et al., 2013) and in hay fever allergens (Oseroff et al., 2010). T cell responses are determined by measuring IFNγ and IL-5 release by ELISPOT. Statistical analysis of differences between populations is expected to be non-parametric and analyzed with the U-Mann-Whitney test. If there were a normal distribution of response, which is a priori unlikely as some patients have no T cell response, with an SD=1, 8 patients per group would be required to provide a p>90% that the study detect a >2 fold difference at a two-sided 0.05 significance level.

[2] = system: peripheral blood mononuclear cells (PBMC), T cells; experiment: ELISpot assay, IL-5 release (SFC) after stimulation with a-synuclein epitope pools; type: cell-based, human
Experimental: as §1, §2, §3, §4, §5

[3] = Patients Summary, PD patients, of donors tested (peptide)
[4] = Patients Summary, PD patients, single peptide
[5] = number of donors positive to the single peptide, second 'Pool Stimulated' section (from r296), 12 donors tested
[6] = peptide + / donors tested (peptide), second 'Pool Stimulated' section (from r296), 12 donors tested
[7] = single peptide, second 'Pool Stimulated' section (from r296), 12 donors tested
[8] = pool 'Phospho' (phosphorylated peptides)
[9] = Patients Summary, Phospho pool peptides
[10] = Patients Summary, Phospho pool peptides, 10 donors tested
[11] = peptides of pool 'Poshpho', 8 donors tested
[12] = peptides of pool 'Poshpho', 8 donors tested, number of donors positive

Substance	Pool + [1]	IFNg Peptide + (donors positive to the peptide) [1, 3]	IFNg Response Frequency [1, 4] [%]	IFNg Total SFC [1, 4] [SFC]	IFNg Peptide + [1, 5]	IFNg Response Frequency [1, 6] [%]	IFNg Total SFC [1, 7] [SFC]	IL-g Peptide + (donors positive to the peptide) [2, 3]	IL-g Response Frequency [2, 4] [%]	IL-g Total SFC [2, 4] [SFC]	IL-g Peptide + [2, 5]	IL-g Response Frequency [2, 6] [%]	IL-g Total SFC [2, 7] [SFC]	further results
3521.0013 (VTNVGGAVV; listed as Homo sapiens)	0	1	50	209	0	0	0	0	0	0	0	0	0	IFNg Avg SFC [1, 4]: 209 SFC
3521.0014 (KTVEGAGSI; listed as Homo sapiens)	0	0	0	0	0	0	0	0	0	0	0	0	0	–
3521.0015 (KTKEQVTNV; listed as Homo sapiens)	0	0	0	0	0	0	0	0	0	0	0	0	0	–
3521.0018 (MPVDPDNEA; listed as Homo sapiens)	0	0	0	0	0	0	–	0	0	0	0	0	0	–
3521.0019 (APGKTKEGV; listed as Homo sapiens)	0	0	0	0	0	0	0	0	0	0	0	0	0	–
3521.0021 (PGKTKEGVL; listed as Homo sapiens)	0	1	13	36	0	0	0	0	0	0	0	0	0	IFNg Avg SFC [1, 4]: 36 SFC
3521.0022 (GSIAAATGF; listed as Homo sapiens)	0	0	0	0	0	0	0	0	0	0	0	0	0	–
3521.0023 (YEMPSEEGY; listed as Homo sapiens)	0	0	0	0	0	0	–	0	0	0	1	50	58	Pool + [1, 8]: 1; IFNg Avg SFC [1, 9]: 680 SFC; IFNg Response Frequency [1, 9]: 30%; IFNg Total SFC [1, 9]: 2039 SFC; IFNg Peptide + (donors positive to the peptide) [1, 10]: 3; IFNg Avg SFC [1, 11]: 333 SFC; IFNg Response Frequency [1, 11]: 13%; IFNg Total SFC [1, 11]: 333 SFC; IFNg Peptide + [1, 12]: 1; IL-g Avg SFC [2, 9]: 1593 SFC; IL-g Response Frequency [2, 9]: 10%; IL-g Total SFC [2, 9]: 1593 SFC; IL-g Peptide + (donors positive to the peptide) [2, 10]: 1; IL-g Avg SFC [2, 11]: 193 SFC; IL-g Response Frequency [2, 11]: 13%; IL-g Total SFC [2, 11]: 193 SFC; IL-g Peptide + [2, 12]: 1; IL-g Avg SFC [2, 7]: 58 SFC
3521.0024 (DPDNEAYEM; listed as Homo sapiens)	0	0	0	0	–	50	93.3	0	0	0	1	50	300	IL-g Avg SFC [2, 7]: 300 SFC
3521.0025 (EEGAPQEGI; listed as Homo sapiens)	0	1	25	290	0	0	0	2	50	172	0	0	0	IFNg Avg SFC [1, 4]: 290 SFC; IL-g Avg SFC [2, 4]: 86 SFC
3521.0026 (MPSEEGYQD; listed as Homo sapiens)	0	0	0	0	0	0	–	0	0	0	1	50	66	Pool + [1, 8]: 1; IFNg Avg SFC [1, 9]: 407 SFC; IFNg Response Frequency [1, 9]: 40%; IFNg Total SFC [1, 9]: 1627 SFC; IFNg Peptide + (donors positive to the peptide) [1, 10]: 4; IFNg Avg SFC [1, 11]: 27 SFC; IFNg Response Frequency [1, 11]: 13%; IFNg Total SFC [1, 11]: 27 SFC; IFNg Peptide + [1, 12]: 1; IL-g Avg SFC [2, 9]: 773 SFC; IL-g Response Frequency [2, 9]: 10%; IL-g Total SFC [2, 9]: 773 SFC; IL-g Peptide + (donors positive to the peptide) [2, 10]: 1; IL-g Avg SFC [2, 11]: 93 SFC; IL-g Response Frequency [2, 11]: 13%; IL-g Total SFC [2, 11]: 93 SFC; IL-g Peptide + [2, 12]: 1; IL-g Avg SFC [2, 7]: 66 SFC
